Counter-ions that a name gives are not always drawn. Like-named read-outs stand apart in the source and are kept apart here.
Legend:
[1] = tested on: fibrin-induced microglia activation; experiment: Image-based assay of fibrin-induced microglia activation (HTS and dose response); assay type: cell-based, rat; conditions: primary microglia HTS, fibrin stimulation, compounds at 10 μM; for inhibition at 10 µM: Rattus norvegicus, Microglia, read-out: Fibrin % inhibition
[2] = tested on: LPS-induced microglia activation; experiment: Image-based assay of LPS-induced microglia activation (HTS and dose response); assay type: cell-based, rat; conditions: primary microglia HTS, LPS stimulation, compounds at 10 μM; for inhibition at 10 µM: Rattus norvegicus, Microglia, read-out: LPS % inhibition
[3] = tested on: fibrin- and LPS-induced microglia activation; experiment: cells; assay type: cell-based, rat; conditions: quadrant by fibrin and LPS inhibition, HTS at 10 μM
[4] = tested on: primary rat microglia
[5] = tested on: primary rat microglia; experiment: Cell toxicity (dead cells, size <150 μm2) in coated fibrin (cFib) assay; conditions: primary microglia HTS, fibrin assay, dead cells (size <150 μm2);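 note: share of dead cells sized under 150 µm2 at 10 µM in fibrin-stimulated microglia HTS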

| Compound | inhibition at 10 µM [1] [%] | inhibition at 10 µM [2] [%] | Quadrant (FIG. 5b) [3] | LPS % cell toxicity ([4]; rat) [%] | Fibrin % cell toxicity [5] [%] | Fibrin % inhibition ([1]; 10 µM) [%] | LPS % inhibition ([2]; 10 µM) [%] | Fibrin % inhibition [1] [%] | LPS % inhibition [2] [%] | LPS % cell toxicity [4] [%] |
| --- | --- | --- | --- | --- | --- | --- | --- | --- | --- | --- |
| CC(=O)NO [Acetohydroxamic Acid] | -3 | 12 | Q4 | 0 | 0 | – | – | – | – | – |
| CC(=O)Nc1c(I)cc(I)c(C(=O)O)c1I [Acetrizoic acid] | 14 | 9 | Q4 | 0 | 1 | – | – | – | – | – |
| CC(=O)N[C@@H](CC(C)C)C(=O)O [Acetyl-l-leucine] | -10 | 45 | Q4 | 3 | 5 | – | – | – | – | – |
| CC(=O)Oc1ccccc1C(=O)O [Acetylsalicylic acid] | -21 | 17 | Q4 | 0 | 1 | – | – | – | – | – |
| CC(=O)NCCCCCC(=O)O [Acexamic Acid] | -25 | 13 | Q4 | 0 | 1 | – | – | – | – | – |
| Nc1nc2c(ncn2COCCO)c(=O)[nH]1 [Aciclovir] | -20 | 3 | Q4 | 1 | 1 | – | – | – | – | – |
| Cc1cnc(C(=O)O)c[n+]1[O-] [Acipimox] | -11 | 20 | Q4 | 0 | 1 | – | – | – | – | – |
| CCN1C[C@]2(COC)[C@H](O)C[C@H](OC)[C@@]34[C@@H]5C[C@@]6(O)[C@H](OC(=O)c7ccccc7)[C@@H]5[C@@](OC(C)=O)([C@@H]([C@H](OC)[C@H]23)[C@@H]14)[C@@H](O)[C@@H]6OC [Aconitine] | -23 | 12 | Q4 | 0 | 0 | – | – | – | – | – |
| CC(=O)Nc1ccc(CC(=O)O)cc1 [Actarit] | 11 | 9 | Q4 | 0 | 1 | – | – | – | – | – |
| COc1ccc(-c2ccc3cc(C(=O)O)ccc3c2)cc1C12CC3CC(CC(C3)C1)C2 [Adapalene] | -12 | 45 | Q4 | 4 | 2 | – | – | – | – | – |
| Nc1ncnc2nc[nH]c12 [Adenine] | -7 | 22 | Q4 | 1 | 1 | – | – | – | – | – |
| Nc1ncnc2c1ncn2[C@@H]1O[C@H](COP(=O)(O)O)[C@@H](O)[C@H]1O [Adenosine Phosphate] | – | – | Q4 | 2 | 1 | 6 | 31 | – | – | – |
| Nc1ncnc2c1ncn2[C@@H]1O[C@H](COP(=O)(O)O)[C@@H](O)[C@H]1O [Adenosine monophosphate] | – | – | Q4 | 0 | 1 | −30 | 4 | – | – | – |
| Nc1ncnc2c1ncn2[C@@H]1O[C@H](CO)[C@@H](O)[C@H]1O [Adenosine] | -6 | 3 | Q4 | 1 | 1 | – | – | – | – | – |
| CCN(CC)CCOC(=O)C(c1ccccc1)c1ccccc1 [Adiphenine Hydrochloride] | -30 | 12 | Q4 | 0 | 1 | – | – | – | – | – |
| CNCC(=O)c1ccc(O)c(O)c1.Cl [Adrenolone Hydrochloride] | – | – | Q4 | – | 0 | – | – | 28 | 32 | 0 |
| CC(=O)NC(Cc1ccccc1)C(=O)O (stereo not drawn) [Afalanine] | 0 | 10 | Q4 | 0 | 1 | – | – | – | – | – |
| NC(=O)c1ccc([N+](=O)[O-])cc1Cl [Aklomide] | -18 | -2 | Q4 | 0 | 0 | – | – | – | – | – |
| CC(N)C(=O)OC(C)(C)Cc1ccc(Cl)cc1.Cl (stereo not drawn) [Alaproclate Hydrochloride, Alaproclate] | – | – | Q4 | – | 1 | – | – | −7 | 15 | 0 |
| C=C1/C(=C\C=C2/CCC[C@]3(C)[C@@H]([C@H](C)CCCC(C)C)CC[C@@H]23)C[C@@H](O)C[C@@H]1O [Alfacalcidol] | -26 | 4 | Q4 | 0 | 1 | – | – | – | – | – |
| COc1cc2nc(N(C)CCCNC(=O)C3CCCO3)nc(N)c2cc1OC.Cl (stereo not drawn) [Alfuzosin Hydrochloride, Alfuzosin] | – | – | Q4 | – | 1 | – | – | 1 | 18 | 0 |
| CC(CN(C)C)CN1c2ccccc2Sc2ccccc21 (stereo not drawn) [Alimemazine] | 32 | 39 | Q4 | 0 | 1 | – | – | – | – | – |
| COCCCOc1cc(C[C@@H](C[C@H](N)[C@@H](O)C[C@H](C(=O)NCC(C)(C)C(N)=O)C(C)C)C(C)C)ccc1OC [Aliskiren] | 2 | 21 | Q4 | 0 | 1 | – | – | – | – | – |
| NC(=O)NC1NC(=O)NC1=O (stereo not drawn) [Allantoin] | -21 | 6 | Q4 | 0 | 1 | – | – | – | – | – |
| C=CCN=C=S [Allylisothiocyanate] | 11 | 18 | Q4 | 0 | 1 | – | – | – | – | – |
| C=CCNC(N)=S [Allylthiourea] | -7 | 11 | Q4 | 0 | 1 | – | – | – | – | – |
| O=C1c2c(O)cccc2C([C@@H]2O[C@H](CO)[C@@H](O)[C@H](O)[C@H]2O)c2cc(CO)cc(O)c21 (stereo partly drawn) [Aloin] | -35 | 14 | Q4 | 0 | 1 | – | – | – | – | – |
| CC1(C)C(C=C(Cl)Cl)C1C(=O)OC(C#N)c1cccc(Oc2ccccc2)c1 (stereo not drawn) [Alpha-cypermethrin] | -15 | 11 | Q4 | 0 | 1 | – | – | – | – | – |
| Cc1nnc2n1-c1ccc(Cl)cc1C(c1ccccc1)=NC2 [Alprazolam] | 33 | 20 | Q4 | 0 | 1 | – | – | – | – | – |
| C=CCSCC1Nc2cc(Cl)c(S(N)(=O)=O)cc2S(=O)(=O)N1 (stereo not drawn) [Althiazide] | -11 | 12 | Q4 | 1 | 1 | – | – | – | – | – |

Source: US20210330611A1, “THERAPY FOR NEUROLOGICAL DISEASES/DISORDERS” (priority 2020, published 2021)
